# From paper PMC10932281, “A Combination of β-Aescin and Newly Synthesized Alkylamidobetaines as Modern Components Eradicating the Biofilms of Multidrug-Resistant Clinical Strains of Candida glabrata” (International Journal of Molecular Sciences, 2024)
# Experiments:
# Type in all cases: cell-based, Candida glabrata
# [1] = tested on: C. glabrata 2586 clinical strain; test: MIC90/MFC, EUCAST broth microdilution; details: Nakaseomyces glabratus; for MFC: read-out: MFC; for MIC90: read-out: MIC90
# [2] = tested on: C. glabrata 2853 clinical strain; test: MIC90/MFC, EUCAST broth microdilution; details: Nakaseomyces glabratus; for MFC: read-out: MFC; for MIC90: read-out: MIC90
# [3] = tested on: C. glabrata 2586; test: FICI checkerboard, β-aescin with antifungal drugs; details: for FICI: combination with β-aescin
# [4] = tested on: C. glabrata 2853; test: FICI checkerboard, β-aescin with antifungal drugs; details: for FICI: combination with β-aescin
# [5] = tested on: C. glabrata strains (ATCC 90030, 2586, 2853); test: Interaction of AABs with antifungal agents, statements for all tested strains together; details: all of the tested C. glabrata strains; AABs 3 µM
# [6] = tested on: C. glabrata ATCC 90030; test: MIC90/MFC, EUCAST broth microdilution; details: Nakaseomyces glabratus, ATCC90030, ATCC 90030; for MFC: read-out: MFC; for MIC90: read-out: MIC90
# [7] = tested on: C. glabrata ATCC 90030; test: Interaction of AABs (3 µM) with antifungal agents, modified checkerboard; details: for Multiplicity factor (MF) with C9: C9 3 µM, |MF| = MIC90 alone/MIC90 with AAB; for MIC90 of antimycotic combined with C9: C9 at constant 3 µM; for MIC90 of antimycotic combined with C9 / MIC90 of antimycotic combined with C11 / MIC90 of antimycotic combined with C13 / MIC90 of antimycotic combined with C15: dilutions in µg/mL; for Multiplicity factor (MF) with C11: C11 3 µM; for MIC90 of antimycotic combined with C11: C11 at constant 3 µM; for Multiplicity factor (MF) with C13: C13 3 µM; for MIC90 of antimycotic combined with C13: C13 at constant 3 µM; for Multiplicity factor (MF) with C15: C15 3 µM; for MIC90 of antimycotic combined with C15: C15 at constant 3 µM
# [8] = tested on: C. glabrata ATCC 90030; test: FICI checkerboard, β-aescin with antifungal drugs; details: for FICI: combination with β-aescin
# [9] = tested on: C. glabrata 2853; test: Interaction of AABs (3 µM) with antifungal agents, modified checkerboard; details: for Multiplicity factor (MF) with C9: C9 3 µM; for MIC90 of antimycotic combined with C9: C9 at constant 3 µM; for MIC90 of antimycotic combined with C9 / MIC90 of antimycotic combined with C11 / MIC90 of antimycotic combined with C13 / MIC90 of antimycotic combined with C15: dilutions in µg/mL; for Multiplicity factor (MF) with C11: C11 3 µM; for MIC90 of antimycotic combined with C11: C11 at constant 3 µM; for Multiplicity factor (MF) with C13: C13 3 µM; for MIC90 of antimycotic combined with C13: C13 at constant 3 µM; for Multiplicity factor (MF) with C15: C15 3 µM; for MIC90 of antimycotic combined with C15: C15 at constant 3 µM
# [10] = tested on: C. glabrata 2586; test: as above; details: for Multiplicity factor (MF) with C9: C9 3 µM; for Multiplicity factor (MF) with C11: C11 3 µM; for MIC90 of antimycotic combined with C11: C11 at constant 3 µM; for MIC90 of antimycotic combined with C11 / MIC90 of antimycotic combined with C13 / MIC90 of antimycotic combined with C9 / MIC90 of antimycotic combined with C15: dilutions in µg/mL; for Multiplicity factor (MF) with C13: C13 3 µM; for MIC90 of antimycotic combined with C13: C13 at constant 3 µM; for Multiplicity factor (MF) with C15: C15 3 µM; for MIC90 of antimycotic combined with C9: C9 at constant 3 µM; for MIC90 of antimycotic combined with C15: C15 at constant 3 µM
compound,measurement,setting,value
CC[C@H](C)C[C@H](C)CCCCCCCCC(=O)N[C@H]1C[C@@H](O)[C@@H](NCCN)NC(=O)[C@@H]2[C@@H](O)CCN2C(=O)[C@H]([C@H](O)CCN)NC(=O)[C@H]([C@H](O)[C@@H](O)c2ccc(O)cc2)NC(=O)[C@@H]2C[C@@H](O)CN2C(=O)[C@H]([C@@H](C)O)NC1=O [Caspofungin],MFC,[1],0.06 µg/mL
same,MIC90,[1],0.03 µg/mL
same,MFC,[2],0.06 µg/mL
same,MIC90,[2],0.03 µg/mL
same,Type of interaction with β-AE (by FICI),[3],additive
same,Type of interaction with β-AE (by FICI),[4],additive
same,FICI,[4],0.75
same,MF with AABs,[5],1
same,MFC,[6],0.06 µg/mL
same,MIC90,[6],0.06 µg/mL
same,Multiplicity factor (MF) with C9,[7],1
same,MIC90 of antimycotic combined with C9,[7],0.06
same,Multiplicity factor (MF) with C11,[7],1
same,MIC90 of antimycotic combined with C11,[7],0.06
same,Multiplicity factor (MF) with C13,[7],1
same,MIC90 of antimycotic combined with C13,[7],0.06
same,Type of interaction with β-AE (by FICI),[8],additive
same,FICI,[8],0.75
CC[C@@H]([C@H](C)O)n1ncn(-c2ccc(N3CCN(c4ccc(OC[C@@H]5CO[C@@](Cn6cncn6)(c6ccc(F)cc6F)C5)cc4)CC3)cc2)c1=O [Posaconazole],MFC,[1],1020 µg/mL
same,MIC90,[1],512 µg/mL
same,Multiplicity factor (MF) with C9,[9],8 (8)
same,Multiplicity factor (MF) with C9,[9]; listed as posaconazole,8
same,MIC90 of antimycotic combined with C9,[9],8 (8)
same,Multiplicity factor (MF) with C11,[9],4 (4)
same,Multiplicity factor (MF) with C11,[9]; listed as posaconazole,4
same,MIC90 of antimycotic combined with C11,[9],4 (4)
same,Multiplicity factor (MF) with C13,[9],4 (4)
same,Multiplicity factor (MF) with C13,[9]; listed as posaconazole,4
same,MIC90 of antimycotic combined with C13,[9],4 (4)
same,Multiplicity factor (MF) with C15,[9],256 (256)
same,Multiplicity factor (MF) with C15,[9]; listed as posaconazole,256
same,MIC90 of antimycotic combined with C15,[9],256 (256)
same,MFC,[2],256 µg/mL
same,MIC90,[2],1 µg/mL
same,FICI,[3],1.002
same,Type of interaction with β-AE (by FICI),[4],additive
same,FICI,[4],0.562
same,MFC,[6],1020 µg/mL
same,MIC90,[6],256 µg/mL
same,Multiplicity factor (MF) with C9,[10],1
same,Multiplicity factor (MF) with C9,[10]; listed as posaconazole,not observed
same,Multiplicity factor (MF) with C11,[10],2
same,MIC90 of antimycotic combined with C11,[10],256
same,Multiplicity factor (MF) with C13,[10],2
same,MIC90 of antimycotic combined with C13,[10],256
same,Multiplicity factor (MF) with C15,[10],1
same,Multiplicity factor (MF) with C15,[10]; listed as posaconazole,not observed
same,Multiplicity factor (MF) with C9,[7],two-fold
same,Multiplicity factor (MF) with C11,[7],8
same,MIC90 of antimycotic combined with C11,[7],32
same,Multiplicity factor (MF) with C13,[7],8
same,MIC90 of antimycotic combined with C13,[7],32
same,Multiplicity factor (MF) with C15,[7],two-fold
same,Type of interaction with β-AE (by FICI),[8],additive
same,FICI,[8],1
same,FICI,[8]; listed as posaconazole,1.0
C[C@@H](c1ncncc1F)[C@](O)(Cn1cncn1)c1ccc(F)cc1F [Voriconazole],MFC,[1],1020 µg/mL
same,MIC90,[1],512 µg/mL
same,Multiplicity factor (MF) with C9,[9],1
same,Multiplicity factor (MF) with C9,[9]; listed as voriconazole,did not alter the level of activity
same,MIC90 of antimycotic combined with C9,[9],2
same,Multiplicity factor (MF) with C11,[9],2
same,Multiplicity factor (MF) with C11,[9]; listed as voriconazole,twice
same,MIC90 of antimycotic combined with C11,[9],1
same,Multiplicity factor (MF) with C13,[9],2
same,Multiplicity factor (MF) with C13,[9]; listed as voriconazole,twice
same,MIC90 of antimycotic combined with C13,[9],1
same,Multiplicity factor (MF) with C15,[9],128
same,MIC90 of antimycotic combined with C15,[9],256
same,MFC,[2],512 µg/mL
same,MIC90,[2],2 µg/mL
same,Type of interaction with β-AE (by FICI),[3],additive
same,FICI,[4],2.5
same,MFC,[6],1020 µg/mL
same,MIC90,[6],512 µg/mL
same,MIC90 of antimycotic combined with C9,[10],64
same,Multiplicity factor (MF) with C11,[10],64
same,MIC90 of antimycotic combined with C11,[10],8
same,Multiplicity factor (MF) with C13,[10],64
same,MIC90 of antimycotic combined with C13,[10],8
same,Multiplicity factor (MF) with C15,[10],64
same,MIC90 of antimycotic combined with C15,[10],8
same,Multiplicity factor (MF) with C9,[7],64
same,MIC90 of antimycotic combined with C9,[7],8
same,Multiplicity factor (MF) with C11,[7],64
same,MIC90 of antimycotic combined with C11,[7],8
same,Multiplicity factor (MF) with C13,[7],64
same,MIC90 of antimycotic combined with C13,[7],8
same,Multiplicity factor (MF) with C15,[7],64
same,MIC90 of antimycotic combined with C15,[7],8
same,Type of interaction with β-AE (by FICI),[8],additive
same,FICI,[8],1
same,FICI,[8]; listed as voriconazole,1.0
Nc1nc(=O)[nH]cc1F [5-Fluorocytosine],MFC,[1],1020 µg/mL
same,MIC90,[1],512 µg/mL
same,Multiplicity factor (MF) with C9,[9],1
same,MIC90 of antimycotic combined with C9,[9],256
same,Multiplicity factor (MF) with C11,[9],1
same,MIC90 of antimycotic combined with C11,[9],256
same,Multiplicity factor (MF) with C13,[9],1
same,MIC90 of antimycotic combined with C13,[9],256
same,Multiplicity factor (MF) with C15,[9],1
same,MIC90 of antimycotic combined with C15,[9],256
same,MFC,[2],512 µg/mL
same,MIC90,[2],256 µg/mL
same,FICI,[3],1.5
same,FICI,[4],1.5
same,MF with AABs,[5],1
same,MFC,[6],1020 µg/mL
same,MIC90,[6],512 µg/mL
same,Multiplicity factor (MF) with C9,[10],1
same,MIC90 of antimycotic combined with C9,[10],512
same,Multiplicity factor (MF) with C11,[10],1
same,MIC90 of antimycotic combined with C11,[10],512
same,Multiplicity factor (MF) with C13,[10],1
same,MIC90 of antimycotic combined with C13,[10],512
same,Multiplicity factor (MF) with C15,[10],1
same,MIC90 of antimycotic combined with C15,[10],512
same,Multiplicity factor (MF) with C9,[7],1
same,MIC90 of antimycotic combined with C9,[7],512
same,Multiplicity factor (MF) with C11,[7],1
same,MIC90 of antimycotic combined with C11,[7],512
same,Multiplicity factor (MF) with C13,[7],1
same,MIC90 of antimycotic combined with C13,[7],512
same,Multiplicity factor (MF) with C15,[7],1
same,MIC90 of antimycotic combined with C15,[7],512
same,FICI,[8],1.5
